Test system: MCF-7 breast cancer cells
Experiment: Microarray gene expression analysis (Agilent whole human genome 4 x 44K; compound vs DMSO, LIMMA log2 fold change)
Assay type: cell-based
Settings: cell cycle genes

Cn1ncc2c(N3CCOCC3)nc(-c3cccc(O)c3)nc21 [ETP-45658]
STAT5A log2FC (Gene 6776): 0.569
STAT5B log2FC (Gene 6777): 0.093
AURKA log2FC (Gene 6790): 0.163
STK10 log2FC (Gene 6793): -0.333
AURKC log2FC (Gene 6795): 0.077
SUV39H1 log2FC (Gene 6839): -0.686
TACC1 log2FC (Gene 6867): 0.112
ADAM17 log2FC (Gene 6868): 0.578
TAF1 log2FC (Gene 6872): 0.237
TAL1 log2FC (Gene 6886): -0.533
TBX3 log2FC (Gene 6926): -0.702
TCF3 log2FC (Gene 6929): -0.071
DYNLT3 log2FC (Gene 6990): -0.257
DYNLT1 log2FC (Gene 6993): 0.039
TERF1 log2FC (Gene 7013): 0.607
TERF2 log2FC (Gene 7014): -0.131
TFAP4 log2FC (Gene 7023): 0.268
NR2F2 log2FC (Gene 7026): 0.124
TFDP1 log2FC (Gene 7027): -0.484
TFDP2 log2FC (Gene 7029): 0.532
TGFB1 log2FC (Gene 7040): -0.640
THBS1 log2FC (Gene 7057): -0.941
TNF log2FC (Gene 7124): -1.647
TNFAIP3 log2FC (Gene 7128): -0.659
TOP2A log2FC (Gene 7153): 0.987
TOP2B log2FC (Gene 7155): 1.103
TOP3A log2FC (Gene 7156): -0.181
TP53 log2FC (Gene 7157): -0.193
TP53BP2 log2FC (Gene 7159): 0.300
TPR log2FC (Gene 7175): 0.896
TSC1 log2FC (Gene 7248): 0.395
TSC2 log2FC (Gene 7249): -0.413
TSG101 log2FC (Gene 7251): 0.390
TTK log2FC (Gene 7272): 1.754
TUBG1 log2FC (Gene 7283): -0.283
UBA52 log2FC (Gene 7311): 0.322
UBB log2FC (Gene 7314): 0.069
UBC log2FC (Gene 7316): 0.294
UBE2B log2FC (Gene 7320): 0.582
UBE2D1 log2FC (Gene 7321): 0.498
UBE2E1 log2FC (Gene 7324): 0.262
UBE2I log2FC (Gene 7329): -0.395
WEE1 log2FC (Gene 7465): -0.074
WNT5A log2FC (Gene 7474): 0.075
WNT10B log2FC (Gene 7480): -0.451
WNT9A log2FC (Gene 7483): 0.073
XPC log2FC (Gene 7508): 0.604
XRCC2 log2FC (Gene 7516): -0.596
YWHAG log2FC (Gene 7532): -0.492
ZNF16 log2FC (Gene 7564): 0.343
ZBTB17 log2FC (Gene 7709): 0.065
PTP4A1 log2FC (Gene 7803): -0.345
EVI5 log2FC (Gene 7813): 0.609
ALMS1 log2FC (Gene 7840): 0.617
NR4A3 log2FC (Gene 8013): 0.735
NUP214 log2FC (Gene 8021): -0.742
FOSL1 log2FC (Gene 8061): -2.502
CUL5 log2FC (Gene 8065): -0.432
YEATS4 log2FC (Gene 8089): 1.304
HMGA2 log2FC (Gene 8091): -1.656
CHAF1B log2FC (Gene 8208): 0.083
CLTCL1 log2FC (Gene 8218): -0.209
USP9X log2FC (Gene 8239): 0.632
SMC1A log2FC (Gene 8243): 0.142
CDC7 log2FC (Gene 8317): 0.500
RAD54L log2FC (Gene 8438): -0.289
CUL4B log2FC (Gene 8450): 0.695
CUL4A log2FC (Gene 8451): 0.552
CUL1 log2FC (Gene 8454): 0.479
KLF11 log2FC (Gene 8462): 1.337
OFD1 log2FC (Gene 8481): 1.019
PKP4 log2FC (Gene 8502): 0.170
GAS7 log2FC (Gene 8522): -0.364
DGKZ log2FC (Gene 8525): -0.549
CAMK1 log2FC (Gene 8536): -0.088
CDC14B log2FC (Gene 8555): 0.259
CDK10 log2FC (Gene 8558): 0.167
MADD log2FC (Gene 8567): 0.423
DYNLL1 log2FC (Gene 8655): -0.944
TNKS log2FC (Gene 8658): 0.686
BECN1 log2FC (Gene 8678): 0.486
CDC23 log2FC (Gene 8697): 0.451
CRADD log2FC (Gene 8738): -0.101
CCNK log2FC (Gene 8812): -0.603
BANF1 log2FC (Gene 8815): -0.450
CDK5R1 log2FC (Gene 8851): -0.154
IER3 log2FC (Gene 8870): -1.789
SPHK1 log2FC (Gene 8877): -0.334
CDC16 log2FC (Gene 8881): 0.890
CCNA1 log2FC (Gene 8900): 0.079
TIMELESS log2FC (Gene 8914): 0.236
PHOX2B log2FC (Gene 8929): -0.044
MBD4 log2FC (Gene 8930): 0.489
BTRC log2FC (Gene 8945): 0.108
WASL log2FC (Gene 8976): 0.239
RNF8 log2FC (Gene 9025): -0.050
PRC1 log2FC (Gene 9055): 0.420
USP2 log2FC (Gene 9099): -0.057
USP8 log2FC (Gene 9101): 0.690
SMC3 log2FC (Gene 9126): 1.332
EXO1 log2FC (Gene 9156): 0.057
ARHGEF2 log2FC (Gene 9181): -0.734
ZW10 log2FC (Gene 9183): 0.473
BUB3 log2FC (Gene 9184): 0.588
NOLC1 log2FC (Gene 9221): -0.505
CCPG1 log2FC (Gene 9236): 0.930
MAPKAPK2 log2FC (Gene 9261): -0.374
PIWIL1 log2FC (Gene 9271): 0.057
RECQL5 log2FC (Gene 9400): 0.154
ROCK2 log2FC (Gene 9475): 0.291
PSMF1 log2FC (Gene 9491): -0.383
VPS4B log2FC (Gene 9525): 0.614
CLOCK log2FC (Gene 9575): 0.069
MAD2L1BP log2FC (Gene 9587): -0.350
ARHGEF10 log2FC (Gene 9639): 0.265
MDC1 log2FC (Gene 9656): -0.639
CEP135 log2FC (Gene 9662): 0.532
KIAA0430 log2FC (Gene 9665): 0.757
CROCC log2FC (Gene 9696): -0.051
ESPL1 log2FC (Gene 9700): 0.453
CEP57 log2FC (Gene 9702): 1.199
UTP14C log2FC (Gene 9724): 0.374
KNTC1 log2FC (Gene 9735): 0.636
RASSF2 log2FC (Gene 9770): 0.675
CKAP5 log2FC (Gene 9793): 0.439
SFI1 log2FC (Gene 9814): -0.103
RB1CC1 log2FC (Gene 9821): 1.457
MELK log2FC (Gene 9833): 0.433
GINS1 log2FC (Gene 9837): -0.673
MAGI2 log2FC (Gene 9863): 0.425
TLK1 log2FC (Gene 9874): 0.392
POM121 log2FC (Gene 9883): -0.667
KLHL21 log2FC (Gene 9903): 0.769
DCLRE1A log2FC (Gene 9937): 0.710
USP3 log2FC (Gene 9960): 0.530
THOC1 log2FC (Gene 9984): 0.606
DMTF1 log2FC (Gene 9988): 0.604
CASP8AP2 log2FC (Gene 9994): 0.813
PDCD6IP log2FC (Gene 10015): 0.516
BCL2L11 log2FC (Gene 10018): 0.145
CHAF1A log2FC (Gene 10036): -0.375
PARP3 log2FC (Gene 10039): 0.325
TOM1L1 log2FC (Gene 10040): 0.759
SMC4 log2FC (Gene 10051): 0.902
ACTR2 log2FC (Gene 10097): -0.298
RAD50 log2FC (Gene 10111): 0.524
KIF20A log2FC (Gene 10112): 0.476
OPTN log2FC (Gene 10133): 0.838
AKAP9 log2FC (Gene 10142): 1.382
PSME3 log2FC (Gene 10197): -1.314
MPHOSPH9 log2FC (Gene 10198): 0.470
MPHOSPH6 log2FC (Gene 10200): -0.666
MAEA log2FC (Gene 10296): -0.219
PAK4 log2FC (Gene 10298): -0.601
NPM2 log2FC (Gene 10361): -0.152
HMG20B log2FC (Gene 10362): 0.276
CITED2 log2FC (Gene 10370): 2.261
